For assay [1], the target named is Histone-lysine N-methyltransferase EZH2 (Homo sapiens, UniProt O75530+Q09028+Q15022+Q15910). Description: Inhibition of N-terminally FLAG-tagged wild type EZH2 in EZH2/SUZ12/EED/RbAp48 complex (unknown origin) expressed in baculovirus infected in SF9 cells assessed as inhibition of methylation of nucleosomes at H3K27 by scintillation counting in presence of [3H]SAM.

The target of assay [2] is Histone-lysine N-methyltransferase EZH2 (Homo sapiens, UniProt O75530+Q09028+Q15022+Q15910, Y641N). The assay is described as follows: Inhibition of N-terminally FLAG-tagged EZH2 Y641N mutant in EZH2/SUZ12/EED/RbAp48 complex (unknown origin) expressed in baculovirus infected in SF9 cells assessed as inhibition of methylation of nucleosomes at H3K27 by scintillation counting in presence of [3H]SAM.

In assay [3] the target is Histone-lysine N-methyltransferase SETDB1 (Homo sapiens, UniProt Q15047). Description: Inhibition of SETDB1 (unknown origin) by HMT assay.
In assay [4] the target is N-lysine methyltransferase SMYD2 (Homo sapiens, UniProt Q9NRG4). The assay is described as follows: Inhibition of SMYD2 (unknown origin) by HMT assay.
For assay [5], the target named is Histone-lysine N-methyltransferase KMT5C (Homo sapiens, UniProt Q86Y97). The assay is described as follows: Inhibition of SUV420H2 (unknown origin) by HMT assay.
Assay [6] deals with Histone-lysine N-methyltransferase EZH2 (Homo sapiens) (UniProt Q15910). Description: Inhibition of EZH2 (unknown origin) at 100 uM by cell-based assay.
The target of assay [7] is Histone-lysine N-methyltransferase 2A (Homo sapiens, UniProt Q03164). The assay is described as follows: Inhibition of MLL (unknown origin) by HMT assay.
Assay [8] deals with Histone-lysine N-methyltransferase SUV39H2 (Homo sapiens, UniProt Q9H5I1). Description: Inhibition of SUV39H2 (unknown origin) by HMT assay.
Assay [9] addresses T1, Histone-lysine N-methyltransferase SETD7 (Homo sapiens, UniProt Q8WTS6).
T1 sequence (Q8WTS6 whole entry): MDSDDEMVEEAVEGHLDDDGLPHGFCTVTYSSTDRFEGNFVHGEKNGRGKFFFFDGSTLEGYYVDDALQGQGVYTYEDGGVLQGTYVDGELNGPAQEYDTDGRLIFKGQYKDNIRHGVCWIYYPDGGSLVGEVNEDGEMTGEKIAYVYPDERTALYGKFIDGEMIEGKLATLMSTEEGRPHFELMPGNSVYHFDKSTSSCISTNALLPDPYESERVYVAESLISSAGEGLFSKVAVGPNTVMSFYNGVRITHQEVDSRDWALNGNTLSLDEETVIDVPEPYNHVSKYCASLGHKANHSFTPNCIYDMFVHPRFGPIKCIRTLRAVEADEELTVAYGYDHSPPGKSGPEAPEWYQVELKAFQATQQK
Description: Inhibition of SETD7 (unknown origin) by HMT assay.

Assay [10] concerns the target T2, Histone-lysine N-methyltransferase EHMT1 (Homo sapiens, UniProt Q9H9B1).
T2 sequence (Q9H9B1 whole entry): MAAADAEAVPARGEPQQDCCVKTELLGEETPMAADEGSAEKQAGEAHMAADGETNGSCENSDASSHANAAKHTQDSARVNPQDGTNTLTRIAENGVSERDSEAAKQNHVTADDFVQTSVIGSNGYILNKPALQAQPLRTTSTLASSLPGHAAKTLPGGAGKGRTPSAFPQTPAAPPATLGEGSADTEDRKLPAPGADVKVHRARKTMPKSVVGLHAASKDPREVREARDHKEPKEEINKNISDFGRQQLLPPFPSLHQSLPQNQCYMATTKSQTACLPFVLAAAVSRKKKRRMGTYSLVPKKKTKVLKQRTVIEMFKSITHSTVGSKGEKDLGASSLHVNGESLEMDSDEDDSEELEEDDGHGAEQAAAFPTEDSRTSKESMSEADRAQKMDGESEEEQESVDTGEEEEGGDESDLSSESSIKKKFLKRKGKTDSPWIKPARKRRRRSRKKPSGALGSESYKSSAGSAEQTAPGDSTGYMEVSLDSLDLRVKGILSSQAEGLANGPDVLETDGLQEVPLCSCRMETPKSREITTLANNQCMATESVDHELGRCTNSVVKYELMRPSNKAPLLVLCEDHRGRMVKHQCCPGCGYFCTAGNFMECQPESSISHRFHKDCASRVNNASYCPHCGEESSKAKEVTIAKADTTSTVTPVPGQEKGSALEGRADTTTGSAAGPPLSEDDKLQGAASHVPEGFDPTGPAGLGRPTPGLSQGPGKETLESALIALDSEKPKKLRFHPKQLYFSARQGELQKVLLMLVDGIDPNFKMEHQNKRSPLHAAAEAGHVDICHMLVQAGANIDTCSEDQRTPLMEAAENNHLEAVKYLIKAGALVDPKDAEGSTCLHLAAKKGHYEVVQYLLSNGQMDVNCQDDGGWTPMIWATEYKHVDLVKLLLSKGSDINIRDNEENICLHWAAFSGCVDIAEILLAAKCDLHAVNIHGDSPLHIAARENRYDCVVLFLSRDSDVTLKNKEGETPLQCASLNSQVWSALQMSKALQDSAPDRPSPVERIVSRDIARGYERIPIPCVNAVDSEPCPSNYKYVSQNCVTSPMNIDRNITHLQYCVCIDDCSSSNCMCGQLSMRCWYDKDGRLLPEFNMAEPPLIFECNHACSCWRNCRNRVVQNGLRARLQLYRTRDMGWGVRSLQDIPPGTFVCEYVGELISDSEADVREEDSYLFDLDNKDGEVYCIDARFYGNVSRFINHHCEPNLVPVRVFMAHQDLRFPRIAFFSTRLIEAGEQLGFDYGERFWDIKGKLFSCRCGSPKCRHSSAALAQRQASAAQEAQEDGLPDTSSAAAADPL
The assay is described as follows: Inhibition of EHMT1 (unknown origin) by HMT assay.

Activity calls are given as the source filed them. The rule behind the calls is not given here.

As usually defined, the IC50 is the concentration that gives 50% inhibition.

Sequence of Histone-lysine N-methyltransferase EZH2 (Homo sapiens, UniProt O75530+Q09028+Q15022+Q15910) (Q15910 whole entry, one chain of several): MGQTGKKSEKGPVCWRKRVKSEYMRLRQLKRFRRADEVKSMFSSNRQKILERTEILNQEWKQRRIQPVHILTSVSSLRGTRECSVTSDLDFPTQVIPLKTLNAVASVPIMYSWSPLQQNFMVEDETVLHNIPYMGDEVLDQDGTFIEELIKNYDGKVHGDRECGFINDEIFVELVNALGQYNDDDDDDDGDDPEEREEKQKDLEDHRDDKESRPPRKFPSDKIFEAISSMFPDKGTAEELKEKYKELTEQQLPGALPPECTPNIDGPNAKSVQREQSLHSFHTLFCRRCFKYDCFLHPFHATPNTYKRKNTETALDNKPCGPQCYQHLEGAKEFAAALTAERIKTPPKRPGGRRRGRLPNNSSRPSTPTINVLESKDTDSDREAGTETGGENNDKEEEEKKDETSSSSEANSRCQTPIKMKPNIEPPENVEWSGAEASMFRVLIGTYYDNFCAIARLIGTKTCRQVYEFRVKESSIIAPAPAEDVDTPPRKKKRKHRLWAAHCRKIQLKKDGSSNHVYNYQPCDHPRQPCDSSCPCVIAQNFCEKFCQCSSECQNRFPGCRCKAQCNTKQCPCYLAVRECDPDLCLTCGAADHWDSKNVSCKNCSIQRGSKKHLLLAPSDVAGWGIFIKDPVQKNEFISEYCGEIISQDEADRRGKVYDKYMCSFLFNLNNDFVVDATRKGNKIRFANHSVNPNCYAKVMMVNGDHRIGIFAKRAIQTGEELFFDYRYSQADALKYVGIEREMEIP
Sequence of Histone-lysine N-methyltransferase EZH2 (Homo sapiens, UniProt O75530+Q09028+Q15022+Q15910, Y641N) (Q15910 whole entry Y641N, one chain of several): as the sequence (Q15910 whole entry, one chain of several) above, with Y641N counted along it
Sequence of Histone-lysine N-methyltransferase SUV39H2 (Q9H5I1 whole entry): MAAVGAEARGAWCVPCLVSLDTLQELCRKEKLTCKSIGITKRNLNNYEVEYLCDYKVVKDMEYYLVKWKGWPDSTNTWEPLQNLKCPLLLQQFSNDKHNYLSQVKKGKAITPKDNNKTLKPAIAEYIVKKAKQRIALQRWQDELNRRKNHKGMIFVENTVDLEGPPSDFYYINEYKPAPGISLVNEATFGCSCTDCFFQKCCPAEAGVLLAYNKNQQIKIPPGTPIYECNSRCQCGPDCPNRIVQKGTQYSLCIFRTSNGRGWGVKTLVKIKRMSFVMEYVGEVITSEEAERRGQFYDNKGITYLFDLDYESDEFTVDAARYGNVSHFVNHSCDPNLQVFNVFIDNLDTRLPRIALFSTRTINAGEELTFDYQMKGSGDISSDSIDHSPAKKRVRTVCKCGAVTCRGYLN
Sequence of N-lysine methyltransferase SMYD2 (Q9NRG4 whole entry): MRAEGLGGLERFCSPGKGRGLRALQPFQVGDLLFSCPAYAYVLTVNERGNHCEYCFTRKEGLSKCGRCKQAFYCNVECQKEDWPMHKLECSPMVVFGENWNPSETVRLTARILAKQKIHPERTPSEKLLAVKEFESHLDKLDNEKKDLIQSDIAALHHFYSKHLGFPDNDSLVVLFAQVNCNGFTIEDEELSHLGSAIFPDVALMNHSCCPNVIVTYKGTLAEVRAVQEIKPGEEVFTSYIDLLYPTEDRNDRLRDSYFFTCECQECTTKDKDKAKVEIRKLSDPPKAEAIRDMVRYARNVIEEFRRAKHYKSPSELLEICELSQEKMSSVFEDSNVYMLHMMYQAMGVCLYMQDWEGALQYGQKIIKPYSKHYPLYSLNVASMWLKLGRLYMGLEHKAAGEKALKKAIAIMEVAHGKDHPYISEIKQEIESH
Sequence of Histone-lysine N-methyltransferase EZH2 (Homo sapiens) (Q15910 whole entry, looked up): as the sequence (Q15910 whole entry, one chain of several) above
Sequence of Histone-lysine N-methyltransferase KMT5C (Q86Y97 whole entry): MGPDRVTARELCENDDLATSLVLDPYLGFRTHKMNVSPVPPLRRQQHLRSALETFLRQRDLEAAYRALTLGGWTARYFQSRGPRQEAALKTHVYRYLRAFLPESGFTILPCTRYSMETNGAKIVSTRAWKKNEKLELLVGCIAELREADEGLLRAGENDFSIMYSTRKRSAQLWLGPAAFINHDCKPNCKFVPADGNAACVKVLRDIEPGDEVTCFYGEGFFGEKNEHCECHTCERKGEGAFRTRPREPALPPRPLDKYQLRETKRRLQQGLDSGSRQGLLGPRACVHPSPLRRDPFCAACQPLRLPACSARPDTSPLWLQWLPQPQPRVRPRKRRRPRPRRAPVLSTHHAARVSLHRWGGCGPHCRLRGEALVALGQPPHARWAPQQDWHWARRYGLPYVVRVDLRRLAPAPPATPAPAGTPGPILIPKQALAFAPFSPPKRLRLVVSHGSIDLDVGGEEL

As for `Cn1nc(CNC(=O)[C@@H](N)CCSC[C@H]2O[C@@H](n3cnc4c(N)ncnc43)[C@H](O)[C@@H]2O)cc1C1CCC1`, in [1], the IC50 came out at 40 µM. On the same count and under the same terms, the result for `COCc1cc(CNC(=O)[C@@H](N)CCSC[C@H]2O[C@@H](n3cnc4c(N)ncnc43)[C@H](O)[C@@H]2O)n[nH]1` reads 40 µM; that for `Nc1ncnc2c1ncn2[C@@H]1O[C@H](CSCC[C@H](N)C(=O)NCc2ccccc2)[C@@H](O)[C@H]1O`, 120 µM. Same read-out and setting: in the case of `Cc1ccccc1-n1cc(CNC(=O)[C@@H](N)CCSC[C@H]2O[C@@H](n3cnc4c(N)ncnc43)[C@H](O)[C@@H]2O)cn1` it was 28 µM.

In the case of `Nc1ncnc2c1ncn2[C@@H]1O[C@H](CSCC[C@H](N)C(=O)NCc2cc(C3CCC3)[nH]n2)[C@@H](O)[C@H]1O`, the half-maximal inhibitory concentration (IC50) stood at 3 µM in assay [1] and 1 µM in [2]. On to `Nc1ncnc2c1ncn2[C@@H]1O[C@H](CSCC[C@H](N)C(=O)O)[C@@H](O)[C@H]1O` [S-ADENOSYLHOMOCYSTEINE], for which the half-inhibitory concentration (IC50) in assay [3] was 2.2 µM; in [4], 0.18 µM; in [5], 10 µM; in assay [7], 2.3 µM; in assay [8] it was 32 µM; in assay [9] it was 30 µM. Moreover, in [10], the IC50 is 0.23 µM. Moreover, the inhibition entry in [6] is “inactive”. For `Nc1ncnc2c1ncn2[C@@H]1O[C@H](CSCC[C@H](N)C(=O)NCc2cc3n(n2)CCN(Cc2ccccc2)C3)[C@@H](O)[C@H]1O`, the IC50 in assay [1] worked out at 8 µM; in assay [2], 2.8 µM. The corresponding values for `CC(C)(C)c1cc(CNC(=O)[C@@H](N)CCSC[C@H]2O[C@@H](n3cnc4c(N)ncnc43)[C@H](O)[C@@H]2O)n[nH]1` are 14 µM and 3.6 µM.

Take `Nc1ncnc2c1ncn2[C@@H]1O[C@H](CSCC[C@H](N)C(=O)NCc2cnn(-c3ccc(F)cc3)c2)[C@@H](O)[C@H]1O`: the results for the IC50 in assay [1] and in assay [2] were 1.4 µM and 0.6 µM, respectively. Consider `Cc1cc(CNC(=O)[C@@H](N)CCSC[C@H]2O[C@@H](n3cnc4c(N)ncnc43)[C@H](O)[C@@H]2O)n(C)n1`, for which the IC50 in assay [1] came to 40 µM. The same measure, in the same setting: the result for `Nc1ncnc2c1ncn2[C@@H]1O[C@H](CSCC[C@H](N)C(=O)NCC2CC2)[C@@H](O)[C@H]1O` reads 60 µM; that for `CCCCNC(=O)[C@@H](N)CCSC[C@H]1O[C@@H](n2cnc3c(N)ncnc32)[C@H](O)[C@@H]1O`, 19 µM.

With `CCCCNC(=O)C(N)CCSC[C@H]1O[C@@H](n2cnc3c(N)ncnc32)[C@H](O)[C@@H]1O` (mixture of isomers), the IC50 in assay [1] worked out at 24 µM.

With `CN1CCn2nc(CNC(=O)[C@@H](N)CCSC[C@H]3O[C@@H](n4cnc5c(N)ncnc54)[C@H](O)[C@@H]3O)cc2C1`, the IC50 in assay [1] was found to be 50 µM. Same read-out and setting: the result for `Nc1ncnc2c1ncn2[C@@H]1O[C@H](CSCC[C@H](N)C(=O)NCc2cnn(Cc3ccccc3)c2)[C@@H](O)[C@H]1O` reads 24 µM. On the same count and under the same terms, in the case of `CCn1cc(CNC(=O)[C@@H](N)CCSC[C@H]2O[C@@H](n3cnc4c(N)ncnc43)[C@H](O)[C@@H]2O)cn1` it was 50 µM.

The values are drawn from ChEMBL document CHEMBL3396964, “SAH derived potent and selective EZH2 inhibitors” (Bioorg Med Chem Lett, 2015).
